Source: the NIST ThermoML archive (doi:10.1021/acs.jced.5b00536)
Where “and” joins values, the source holds several entries; their conditions need not be identical. Identical values can stand only once.

Test: xn = mol fraction of the nth substance listed
Settings: x2 = 0.79; for electrical conductivity / mass density: 100 kPa, Liquid; for electrical conductivity: Alternating current cell with electrodes; for mass density: Buoyancy - hydrostatic balance; for surface tension liquid-gas: Maximal bubble pressure

[Ca+2].[F-].[F-] [calcium fluoride] + [F-].[Li+]
Settings | electrical conductivity [S/m] | mass density | surface tension liquid-gas [mN/m]
1063.8 K | 0.053003 | – | –
1065.5 K | 0.053101 | – | –
1067.1 K | 0.053153 | – | –
1068.8 K | 0.05333 | – | –
1070.4 K | 0.05353 | – | –
1071.9 K | 0.05375 | – | –
1073.5 K | 0.05359 | – | –
1075.2 K | 0.0537 | – | –
1075.7 K | – | 2107.8 kg/m3 | –
1075.9 K | – | 2107.3 kg/m3 | –
1076.2 K | – | 2106.7 kg/m3 and 2107.8 kg/m3 | –
1076.7 K | – | 2106.6 kg/m3 | –
1076.8 K | 0.05368 | 2106 kg/m3 | –
1077.1 K | – | 2106 kg/m3 | –
1077.5 K | – | 2105.4 kg/m3 | –
1077.7 K | – | 2104.8 kg/m3 | –
1078 K | – | 2104.8 kg/m3 | –
1078.4 K | – | 2104.2 kg/m3 | –
1078.5 K | 0.05386 | – | –
1078.7 K | – | 2104.1 kg/m3 | –
1079.1 K | – | 2103.5 kg/m3 | –
1079.4 K | – | 2103.5 kg/m3 | –
1079.8 K | – | 2102.9 kg/m3 | –
1080 K | – | 2102.9 kg/m3 | –
1080.1 K | 0.05394 | – | –
1080.3 K | – | 2102.3 kg/m3 | –
1080.7 K | – | 2101.7 kg/m3 | –
1081.1 K | – | 2101.6 kg/m3 | –
1081.4 K | – | 2101 kg/m3 | –
1081.8 K | 0.054 | 2101 kg/m3 | –
1082 K | – | 2100.4 kg/m3 | –
1082.4 K | – | 2099.8 kg/m3 | –
1082.9 K | – | 2099.7 kg/m3 | –
1083.4 K | 0.0542 | – | –
1083.5 K | – | 2099.1 kg/m3 | –
1083.6 K | – | 2099.1 kg/m3 | –
1083.8 K | – | 2098.5 kg/m3 | –
1084.3 K | – | 2098.5 kg/m3 | –
1084.5 K | – | 2097.9 kg/m3 | –
1085 K | – | 2097.8 kg/m3 | –
1085.1 K | 0.05436 | – | –
1085.5 K | – | 2097.2 kg/m3 | –
1085.9 K | – | 2096.6 kg/m3 | –
1086.1 K | – | 2096.6 kg/m3 | –
1086.4 K | – | 2096 kg/m3 | –
1086.8 K | 0.05455 | – | –
1086.9 K | – | 2095.9 kg/m3 | –
1087.2 K | – | 2095.3 kg/m3 | –
1087.8 K | – | 2094.7 kg/m3 | –
1088.2 K | – | 2094.7 kg/m3 | –
1088.4 K | 0.05469 | – | –
1088.6 K | – | 2094.1 kg/m3 | –
1088.8 K | – | 2094 kg/m3 | –
1089.3 K | – | 2093.4 kg/m3 | –
1089.5 K | – | 2092.8 kg/m3 | –
1090 K | – | 2092.8 kg/m3 | –
1090.1 K | 0.05496 | – | –
1090.5 K | – | 2092.2 kg/m3 | –
1090.8 K | – | 2092.1 kg/m3 | –
1091.2 K | – | 2093.7 kg/m3 | –
1091.7 K | – | 2093.7 kg/m3 | –
1091.8 K | 0.05506 | – | –
1091.9 K | – | 2093.1 kg/m3 | –
1092.8 K | – | 2091.9 kg/m3 and 2092.4 kg/m3 | –
1093.1 K | – | 2091.3 kg/m3 | –
1093.4 K | 0.05525 | – | –
1093.8 K | – | 2091.2 kg/m3 | –
1094.1 K | – | 2090.6 kg/m3 | –
1094.4 K | – | 2090.6 kg/m3 | –
1094.8 K | – | 2092.8 kg/m3 | –
1095 K | – | 2092.2 kg/m3 | –
1095.1 K | 0.05547 | – | –
1095.5 K | – | 2092.1 kg/m3 | –
1096.2 K | – | 2090.9 kg/m3 | –
1096.3 K | – | 2090.9 kg/m3 and 2091.5 kg/m3 | –
1096.7 K | – | 2090.3 kg/m3 | –
1096.8 K | 0.0556 | – | –
1096.9 K | – | 2089.7 kg/m3 | –
1097.3 K | – | 2089.1 kg/m3 | –
1097.6 K | – | 2089.1 kg/m3 | –
1098 K | – | 2088.5 kg/m3 | –
1098.4 K | – | 2087.9 kg/m3 | –
1098.5 K | 0.05571 | – | –
1098.8 K | – | 2087.3 kg/m3 | –
1099.1 K | – | 2087.2 kg/m3 | –
1099.5 K | – | 2086.6 kg/m3 | –
1099.9 K | – | 2086 kg/m3 | –
1100.2 K | 0.05586 | 2086 kg/m3 | –
1100.7 K | – | 2085.4 kg/m3 | –
1101 K | – | 2084.8 kg/m3 | –
1101.5 K | – | 2084.2 kg/m3 | –
1101.8 K | – | 2084.1 kg/m3 | –
1101.9 K | 0.05606 | – | –
1102.1 K | – | 2083.6 kg/m3 | –
1102.6 K | – | 2082.9 kg/m3 | –
1102.9 K | – | 2082.4 kg/m3 | –
1103.2 K | – | 2082.3 kg/m3 | –
1103.6 K | 0.05634 | – | –
1103.8 K | – | 2081.7 kg/m3 | –
1104.2 K | – | 2081.1 kg/m3 | –
1104.6 K | – | 2080.5 kg/m3 | –
1105.2 K | – | 2079.9 kg/m3 | –
1105.3 K | 0.05637 | – | –
1105.5 K | – | 2079.3 kg/m3 | –
1105.7 K | – | 2079.2 kg/m3 | –
1106.3 K | – | 2078.6 kg/m3 | –
1106.6 K | – | 2078 kg/m3 | –
1107 K | – | 2077.4 kg/m3 | –
1107.1 K | 0.05654 | – | –
1107.6 K | – | 2077.4 kg/m3 | –
1107.9 K | – | 2076.8 kg/m3 | –
1108.5 K | – | 2076.1 kg/m3 | –
1108.8 K | 0.05671 | 2076.1 kg/m3 | –
1109.1 K | – | 2074.4 kg/m3 | –
1109.5 K | – | 2073.8 kg/m3 | –
1110 K | – | 2073.2 kg/m3 | –
1110.3 K | – | 2073.1 kg/m3 | –
1110.5 K | 0.05682 | – | –
1110.6 K | – | 2072 kg/m3 | –
1111.2 K | – | 2071.9 kg/m3 | –
1111.6 K | – | 2071.3 kg/m3 | –
1111.8 K | – | 2070.8 kg/m3 | –
1112 K | – | – | 221.4
1112.3 K | 0.05703 | 2070.1 kg/m3 | –
1112.8 K | – | 2069.5 kg/m3 | –
1113 K | – | 2069.5 kg/m3 | –
1113.5 K | – | 2068.9 kg/m3 | –
1114 K | 0.05718 | – | –
1114.2 K | – | 2068.3 kg/m3 | –
1114.3 K | – | 2068.2 kg/m3 | –
1114.7 K | – | 2067.1 kg/m3 and 2067.6 kg/m3 | –
1114.9 K | – | 2066.5 kg/m3 | –
1115.4 K | – | 2066.4 kg/m3 | –
1115.7 K | 0.05729 | 2065.9 kg/m3 | –
1115.9 K | – | 2065.3 kg/m3 | –
1116.2 K | – | 2064.7 kg/m3 | –
1116.7 K | – | 2064.6 kg/m3 | –
1117 K | – | 2064 kg/m3 | –
1117.4 K | 0.05756 | – | –
1117.5 K | – | 2063.4 kg/m3 | –
1118 K | – | 2068.9 kg/m3 | –
1118.4 K | – | 2068.3 kg/m3 | –
1118.8 K | – | 2067.7 kg/m3 | –
1119 K | – | 2067.7 kg/m3 | –
1119.2 K | 0.05765 | – | –
1119.4 K | – | 2067.1 kg/m3 | –
1119.7 K | – | 2066.5 kg/m3 | –
1120.1 K | – | 2065.9 kg/m3 | –
1120.5 K | – | 2065.8 kg/m3 | –
1120.9 K | 0.0578 | – | –
1121 K | – | 2069.1 kg/m3 | –
1121.2 K | – | 2068.5 kg/m3 | –
1121.7 K | – | 2067.9 kg/m3 | –
1122.2 K | – | 2067.3 kg/m3 | –
1122.5 K | – | 2066.7 kg/m3 | –
1122.7 K | 0.05808 | – | –
1123.3 K | – | 2066.1 kg/m3 and 2066.6 kg/m3 | –
1123.7 K | – | 2065.5 kg/m3 | –
1124.4 K | 0.05824 | 2064.8 kg/m3 | –
1124.8 K | – | 2064.2 kg/m3 | –
1125.1 K | – | 2063.6 kg/m3 | –
1126 K | – | 2063.5 kg/m3 | –
1126.1 K | 0.05803 | – | –
1126.2 K | – | 2062.9 kg/m3 | –
1126.3 K | – | 2062.4 kg/m3 | –
1126.7 K | – | 2061.8 kg/m3 | –
1127.5 K | – | 2061.1 kg/m3 | –
1127.9 K | 0.05831 | 2060.5 kg/m3 and 2061.1 kg/m3 | –
1128.4 K | – | 2059.9 kg/m3 | –
1128.8 K | – | 2059.9 kg/m3 | –
1128.9 K | – | 2069.8 kg/m3 | –
1129.5 K | 0.0585 | – | –
1129.8 K | – | 2069.1 kg/m3 | –
1130.2 K | – | 2068.5 kg/m3 | –
1130.3 K | – | 2068 kg/m3 | –
1131 K | – | 2067.3 kg/m3 | 218.4
